Assays:
[1] = Inhibition of N-terminal His-6 tagged VIM-2 (27 to 266 residues) (unknown origin) expressed in Escherichia coli Transetta (DE3) using FC5 as fluorescence substrate preincubated for 10 mins followed by substrate addition by microplate reader analysis; parameters: species or system Bacteria
[2] = Inhibition of Metallo-beta-lactamase VIM-1 (unknown origin) using FC5 as fluorescence substrate preincubated for 10 mins followed by substrate addition by microplate reader analysis
[3] = Inhibition of Metallo-beta-lactamase VIM-5 (unknown origin) using FC5 as fluorescence substrate preincubated for 10 mins followed by substrate addition by microplate reader analysis
[4] = biological target: Metallo-beta-lactamase type 2 (Bacteria, UniProt C7C422); experiment: Inhibition of NDM-1 (1 to 270 residues) (unknown origin) expressed in Escherichia coli Transetta (DE3) using FC5 as fluorescence substrate preincubated for 10 mins followed by substrate addition by microplate reader analysis
Metallo-beta-lactamase type 2, sequence (C7C422 whole entry, the tested form may be a part): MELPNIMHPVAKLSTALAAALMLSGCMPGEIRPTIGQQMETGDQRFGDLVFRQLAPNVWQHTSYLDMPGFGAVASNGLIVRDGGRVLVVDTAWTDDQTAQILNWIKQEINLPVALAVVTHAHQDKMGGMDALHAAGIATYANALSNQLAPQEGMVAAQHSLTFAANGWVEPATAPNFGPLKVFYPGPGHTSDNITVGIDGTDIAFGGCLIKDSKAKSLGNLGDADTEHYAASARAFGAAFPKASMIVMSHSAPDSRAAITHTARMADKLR

[5] = Inhibition of Metallo-beta-lactamase IMP-1 (unknown origin) using FC5 as fluorescence substrate preincubated for 10 mins followed by substrate addition by microplate reader analysis
Escherichia coli [6] = experiment: Antibacterial activity against Escherichia coli C1541 expressing VIM-2 assessed as meropenem MIC at 10 ug/ml incubated for 16 to 18 hrs in presence of meropenem by two-fold serial dilution method; format: functional; conditions: dose 10 µg/ml, time 16-18 hrs
Escherichia coli [7] = experiment: Antibacterial activity against Escherichia coli C1542 expressing VIM-2 assessed as meropenem MIC at 10 ug/ml incubated for 16 to 18 hrs in presence of meropenem by two-fold serial dilution method; format: functional; conditions: dose 10 µg/ml, time 16-18 hrs
Escherichia coli [8] = experiment: Antibacterial activity against Escherichia coli C1541 expressing IMP-1 assessed as meropenem MIC at 10 ug/ml incubated for 16 to 18 hrs in presence of meropenem by two-fold serial dilution method; format: functional; conditions: dose 10 µg/ml, time 16-18 hrs

Compound	IC50 [1] [µM]	IC50 [2] [µM]	IC50 [3] [µM]	IC50 [4] [µM]	IC50 [5] [µM]	MIC (Escherichia coli [6]) [µg/mL]	MIC (Escherichia coli [7]) [µg/mL]	MIC (Escherichia coli [8]) [µg/mL]
O=C(O)c1nccn1Cc1ccccc1	0.48	4.14	1.55	63.5	32.1	16	16	8
O=C(O)c1nccn1Cc1ccncc1	0.56	29.5	5.78	> 300	> 300	≤ 0.25	≤ 0.25	8
O=C(O)c1nc2ccccc2n1Cc1ccccc1	> 300	> 100	–	> 100	> 100	–	–	–
O=C(O)c1nccn1CCc1cccc(F)c1	0.11	3.67	0.66	> 100	441	–	–	–
O=C(O)c1nccn1CCc1cccc2ccccc12	0.07	4.13	1.07	74.8	50.9	≤ 0.25	≤ 0.25	8
O=C(O)c1ncsc1Cc1ccccc1	2.06	6.31	4.37	43.7	7.8	–	–	–
O=C(O)c1nccn1CCc1ccc(-c2ccc3ccccc3c2)cc1	4.97	96.7	0.22	> 100	202	–	–	–
O=C(O)c1ncsc1CCc1ccccc1F	0.035	1.82	1.17	> 100	121	–	–	–
O=C(O)c1nccn1CCc1ccc2ccccc2c1	0.023	7.06	0.14	> 100	46.8	0.5	≤ 0.25	8
CCC(c1ccccc1)n1ccnc1C(=O)O (centres undefined)	2.73	30.8	2.59	> 300	> 300	–	–	–
Cc1ncsc1CCn1ccnc1C(=O)O	0.2	31.6	1.99	> 100	> 100	–	–	–
O=C(O)c1ncsc1CCc1ccc(Br)cc1	0.1	8.37	0.44	> 100	> 100	–	–	–
O=C(O)c1nccn1CCc1ccc(-c2cccs2)cc1	0.018	3.98	0.018	126	64	≤ 0.25	≤ 0.25	8
O=C(O)c1nccn1CCc1ccc(-c2ccncc2)cc1	0.11	2.17	0.17	54.6	10.2	–	–	–
Cc1ccc(CCn2ccnc2C(=O)O)cc1	0.48	15.7	6.28	> 100	> 100	–	–	–
O=C(O)c1nccn1CCc1cccs1	0.12	1.07	0.64	> 100	7.97	–	–	–
COc1cccc(CCc2scnc2C(=O)O)c1	0.028	4.77	3.23	29.9	61.6	–	–	–
O=C(O)c1ncsc1CCc1ccc(C(F)(F)F)cc1	0.21	14.5	1.55	> 100	87.8	–	–	–
O=C(O)c1nccn1CCc1ccc(Cl)cc1	0.1	8.37	0.44	> 100	> 100	–	–	–
COc1ccc(CCn2ccnc2C(=O)O)cc1OC	0.31	76.3	15.1	> 100	326	–	–	–
O=C(O)c1ncsc1CCc1cccc(Br)c1	0.024	1.64	1.45	> 100	> 100	–	–	–
O=C(O)c1ncsc1CCc1ccc(F)cc1	0.047	4.09	0.41	> 100	56.8	–	–	–
O=C(O)c1nccn1CCc1ccc(-c2cccc3ccccc23)cc1	1.46	> 100	0.089	~200	~67	–	–	–
COc1cccc(CCn2ccnc2C(=O)O)c1	0.38	9.39	10.7	> 100	70.2	–	–	–
O=C(O)c1nccn1CCc1ccc([N+](=O)[O-])cc1	0.04	4.84	0.15	> 100	> 100	≤ 0.25	≤ 0.25	8

Compound	IC50 [1] [µM]	IC50 [2] [µM]	IC50 [3] [µM]	IC50 [4] [µM]	IC50 [5] [µM]	MIC (Escherichia coli [6]) [µg/mL]	MIC (Escherichia coli [7]) [µg/mL]	MIC (Escherichia coli [8]) [µg/mL]
O=C(O)c1ncsc1CCc1cccc(C(F)(F)F)c1	0.56	2.08	2.69	> 100	112	–	–	–
COc1ccc(CCn2ccnc2C(=O)O)cc1	0.35	33.7	1.64	> 100	4.48	–	–	–
O=C(O)c1nccn1CCCc1ccccc1	0.63	0.63	0.83	> 100	10.8	–	–	–
O=C(O)c1nccn1CCc1cccc(Cl)c1	0.09	0.96	108	> 100	> 100	–	–	–
O=C(O)c1ncoc1Cc1ccccc1	41.7	> 100	11.8	> 100	> 100	–	–	–
O=C(O)c1nncn1Cc1ccccc1	> 100	–	–	> 100	–	–	–	–
O=C(O)c1nccn1CCc1ccccn1	0.2	3.83	0.71	18.9	> 100	–	–	–
O=C(O)c1nccn1CCNS(=O)(=O)c1ccccc1	5.95	> 100	62.7	> 100	> 100	–	–	–
O=C(O)c1ncsc1CCc1ccc(C(c2ccccc2)(c2ccccc2)c2ccccc2)cc1	0.23	9.56	0.65	> 100	46.8	–	–	–
Nc1ccc(CCn2ccnc2C(=O)O)cc1	0.33	3.73	0.45	> 100	4.9	–	–	–
O=C(O)c1ncsc1CCc1ccccc1	0.22	0.42	0.43	82.4	2.92	–	–	–
Cc1c(C(=O)O)ncn1Cc1ccccc1	> 100	> 100	> 100	> 100	> 100	–	–	–
O=C(O)c1ncn(Cc2ccccc2)n1	> 100	–	–	> 100	–	–	–	–
O=C(O)c1nccn1CCc1ccc2c(c1)CCO2	0.48	190	96.2	> 100	> 100	–	–	–
CC(Cn1ccnc1C(=O)O)c1ccccc1 (centres undefined)	0.19	3.29	1.08	203	261	–	–	–
O=C(O)c1nccn1CCc1ccc(Br)cc1	0.06	3.5	0.1	> 100	> 100	–	–	–
O=C(O)c1nccn1CCOc1ccccc1	5.49	14.4	0.52	> 100	> 100	–	–	–
O=C(O)c1nccn1CCS(=O)(=O)c1ccccc1	2.87	112	4.42	> 100	> 100	–	–	–
O=C(O)c1nccn1CCc1ccccc1	0.11	2.32	1.59	301	483	–	–	–
O=C(O)c1nccn1C(C(=O)O)c1ccccc1 (centres undefined)	7.48	> 300	9.24	> 300	1.59	16	16	8
CC(c1ccccc1)n1ccnc1C(=O)O (centres undefined)	0.76	8.18	3.81	> 200	4.12	–	–	–
O=C(O)c1nccn1CCc1ccc(-c2ccccc2)cc1	0.06	2.37	0.18	25.4	21.4	0.5	≤ 0.25	8
O=C(Cn1ccnc1C(=O)O)c1ccccc1	0.63	5.02	1.85	> 300	> 100	–	–	–
O=C(O)c1ncnn1Cc1ccccc1	> 100	–	–	> 100	–	–	–	–
O=C(O)c1nccn1CCc1ccc(F)cc1	0.14	3.11	1.93	> 100	> 100	–	–	–
